Results published in US10717733B2, “Haloallylamine indole and azaindole derivative inhibitors of lysyl oxidases and uses thereof” (PHARMAXIS LTD., priority 2016, dated 2020).
Structures can show the parent of a compound that is named as a salt.

Columns and labels:
Format in all cases: biochemical
[1] = target: human recombinant SSAO/VAP-1 (Homo sapiens (Human), UniProt Q16853); assay: Inhibition of human recombinant SSAO/VAP-1 amine oxidase activity; settings: 30 min preincubation at 37° C., 600 μM benzylamine
Method in brief: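 Purified SSAO/VAP-1 (residues 34-763, expressed in CHO Lec 8 cells; 0.25 μg/mL) preincubated 30 min at 37° C with compound in 0.1 M sodium phosphate pH 7.4. Reaction mix of 600 μM benzylamine, 120 μM Amplex Red and 1.5 U/mL HRP added; fluorescence (ex 565/em 590 nm) read every 2.5 min for 30 min; IC50 from kinetic slopes over 4-11 point curves.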

Bovine LOX = Bovine LOX (Bos taurus (Bovine), UniProt P33072); assay: LOX inhibition, peroxidase-coupled Amplex Red amine oxidase assay; settings: 30 min preincubation at 37° C., putrescine substrate
Method in brief: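 Bovine LOX in 1.2 M urea, 50 mM sodium borate pH 8.2 with 1 μM mofegiline and 0.5 mM pargyline; putrescine at twice KM (e.g. 20 mM for LOX) with Amplex Red/HRP. Fluorescence (ex 565/em 590 nm) read kinetically over 30 min at 37–45 °C; IC50 from slopes.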

Human LOXL2 = Human LOXL2 (Homo sapiens (Human), UniProt Q9Y4K0); assay: LOXL2 inhibition, peroxidase-coupled Amplex Red amine oxidase assay; settings: 30 min preincubation at 37° C., putrescine substrate
Method in brief: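 Enzyme in 1.2 M urea, 50 mM sodium borate pH 8.2 with 1 μM mofegiline and 0.5 mM pargyline, preincubated 30 min at 37° C with compound (11-point CRC). Putrescine at twice KM (10 mM for LOXL2) with Amplex Red/HRP; fluorescence (ex 565, em 590) read kinetically 30 min; IC50 from slopes.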

Recombinant human MAO-B = Recombinant human MAO-B (Homo sapiens (Human), UniProt P27338); assay: Inhibition of human recombinant MAO-B; settings: benzylamine 100 μM
Method in brief: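 Recombinant human MAO-B used as enzyme source (0.06 mg/mL, stated concentration). Run as for the human SSAO/VAP-1 assay, except benzylamine substrate at 100 μM.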

Bovine LOX, sequence (P33072 170-418): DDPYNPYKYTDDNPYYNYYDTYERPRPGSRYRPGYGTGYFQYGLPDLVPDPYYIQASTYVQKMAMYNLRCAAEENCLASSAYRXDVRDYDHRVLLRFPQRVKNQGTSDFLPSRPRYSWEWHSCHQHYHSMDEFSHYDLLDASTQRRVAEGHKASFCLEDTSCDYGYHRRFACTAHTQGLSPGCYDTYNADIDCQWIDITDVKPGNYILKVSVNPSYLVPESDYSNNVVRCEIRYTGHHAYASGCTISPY
Recombinant human MAO-B, sequence (P27338 whole entry): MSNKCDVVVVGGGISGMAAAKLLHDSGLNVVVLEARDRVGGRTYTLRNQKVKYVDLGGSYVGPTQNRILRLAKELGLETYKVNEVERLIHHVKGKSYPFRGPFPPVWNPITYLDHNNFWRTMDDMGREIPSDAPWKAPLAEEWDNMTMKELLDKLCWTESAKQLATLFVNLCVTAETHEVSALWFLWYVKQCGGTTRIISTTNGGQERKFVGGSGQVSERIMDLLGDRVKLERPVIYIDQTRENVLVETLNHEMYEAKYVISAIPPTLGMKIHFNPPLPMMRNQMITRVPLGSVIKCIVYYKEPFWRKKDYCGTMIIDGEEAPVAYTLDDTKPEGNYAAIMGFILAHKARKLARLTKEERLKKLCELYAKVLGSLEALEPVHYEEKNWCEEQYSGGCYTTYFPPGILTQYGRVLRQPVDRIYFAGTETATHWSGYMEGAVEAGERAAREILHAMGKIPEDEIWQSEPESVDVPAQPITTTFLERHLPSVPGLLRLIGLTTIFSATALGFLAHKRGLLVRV
human recombinant SSAO/VAP-1, sequence (Q16853 34-763): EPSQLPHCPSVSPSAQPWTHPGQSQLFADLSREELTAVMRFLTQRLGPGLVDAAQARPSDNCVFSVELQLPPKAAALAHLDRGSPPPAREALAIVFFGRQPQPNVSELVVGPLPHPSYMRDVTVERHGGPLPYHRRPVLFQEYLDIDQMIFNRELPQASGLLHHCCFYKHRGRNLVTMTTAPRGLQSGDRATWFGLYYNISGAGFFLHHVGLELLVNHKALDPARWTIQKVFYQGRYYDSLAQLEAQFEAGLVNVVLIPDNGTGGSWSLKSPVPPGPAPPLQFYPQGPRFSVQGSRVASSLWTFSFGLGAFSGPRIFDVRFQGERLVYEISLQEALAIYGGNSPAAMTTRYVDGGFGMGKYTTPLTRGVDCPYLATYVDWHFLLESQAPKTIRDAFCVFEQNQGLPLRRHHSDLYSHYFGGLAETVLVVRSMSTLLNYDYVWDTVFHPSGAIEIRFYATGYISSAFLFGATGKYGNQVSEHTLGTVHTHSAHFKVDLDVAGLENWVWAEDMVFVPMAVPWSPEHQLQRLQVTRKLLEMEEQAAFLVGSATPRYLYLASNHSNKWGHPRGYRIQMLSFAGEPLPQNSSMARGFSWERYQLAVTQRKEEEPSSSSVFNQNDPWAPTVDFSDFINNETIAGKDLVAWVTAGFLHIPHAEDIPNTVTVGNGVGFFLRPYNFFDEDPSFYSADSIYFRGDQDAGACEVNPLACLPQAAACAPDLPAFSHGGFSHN
Human LOXL2, sequence (Q9Y4K0 26-774): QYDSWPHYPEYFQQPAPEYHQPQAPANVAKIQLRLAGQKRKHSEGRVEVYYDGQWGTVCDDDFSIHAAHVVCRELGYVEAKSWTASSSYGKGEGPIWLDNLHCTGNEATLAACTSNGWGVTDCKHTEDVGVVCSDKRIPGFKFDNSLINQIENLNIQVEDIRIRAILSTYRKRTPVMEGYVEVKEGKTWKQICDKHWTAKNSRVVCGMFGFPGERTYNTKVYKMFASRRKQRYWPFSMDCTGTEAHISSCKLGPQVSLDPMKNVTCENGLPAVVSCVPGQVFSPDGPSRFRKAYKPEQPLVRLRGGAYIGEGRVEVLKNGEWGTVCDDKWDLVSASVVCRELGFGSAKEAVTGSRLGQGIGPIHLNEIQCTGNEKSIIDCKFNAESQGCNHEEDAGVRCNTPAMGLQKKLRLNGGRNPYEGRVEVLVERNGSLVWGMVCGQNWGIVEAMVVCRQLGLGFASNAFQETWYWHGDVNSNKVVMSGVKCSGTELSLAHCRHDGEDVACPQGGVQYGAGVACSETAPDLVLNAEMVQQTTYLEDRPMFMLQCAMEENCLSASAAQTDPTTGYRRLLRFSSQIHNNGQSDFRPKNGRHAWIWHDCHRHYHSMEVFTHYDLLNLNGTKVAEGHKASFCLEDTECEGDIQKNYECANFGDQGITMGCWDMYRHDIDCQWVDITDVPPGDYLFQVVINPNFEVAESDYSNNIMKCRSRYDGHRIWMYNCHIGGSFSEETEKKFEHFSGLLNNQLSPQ

SMILES | IC50 [1] [nM] | IC50 (Bovine LOX) [nM] | IC50 (Human LOXL2) [nM] | IC50 (Recombinant human MAO-B) [nM]
CNS(=O)(=O)c1cccc(-c2c(C)n(C/C(F)=C/CN)c3ccc(C(=O)O)cc23)c1 [Compound 18, (Z)-1-(4-amino-2-fluorobut-2-en-l-yl)-2-methyl-3-(3-(N-methylsulfamoyl)phenyl)-1H-indole-5-carboxylic acid, Hydrochloride] | > 3000 | > 300 | < 300 | > 3000
COc1ccc2c(c1)c(-c1cccc(S(=O)(=O)N(C)C)c1)c(C)n2C/C(F)=C/CN [Compound 49, (Z)-3-(1-(4-amino-2-fluorobut-2-en-1-yl)-5-methoxy-2-methyl-1H-indol-3-yl)-N,N-dimethylbenzenesulfonamide] | > 3000 | > 300 | < 300 | > 3000
Cc1cc(-c2c(C)n(C/C(F)=C/CN)c3ccc(C(=O)N(C)C)cc23)cc(C)n1 [Compound 90, (Z)-1-(4-amino-2-fluorobut-2-en-1-yl)-3-(2,6-dimethylpyridin-4-yl)-N,N,2-trimethyl-1H-indole-5-carboxamide] | > 3000 | > 300 | < 300 | > 3000
CCOC(=O)c1ccc2c(c1)c(-c1cc(S(=O)(=O)N(C)C)ccc1C)c(C)n2C/C(F)=C/CN [Compound 19, (Z)-ethyl 1-(4-amino-2-fluorobut-2-en-1-yl)-3-(5-(N,N-dimethylsulfamoyl)-2-methylphenyl)-2-methyl-1H-indole-5-carboxylate] | > 3000 | > 300 | < 300 | > 3000
CN(C)S(=O)(=O)c1cccc(-c2c(Cl)n(C/C(F)=C/CN)c3cccnc23)c1 [Compound 99, (Z)-3-(1-(4-amino-2-fluorobut-2-en-1-yl)-2-chloro-1H-pyrrolo[3,2-b]pyridin-3-yl)-N,N-dimethylbenzenesulfonamide] | > 3000 | > 300 | < 300 | > 3000
Cc1c(-c2cccc(S(=O)(=O)N(C)C)c2)c2ccc(C(=O)O)cc2n1C/C(F)=C/CN [Compound 9, (Z)-1-(4-amino-2-fluorobut-2-en-1-yl)-3-(3-(N,N-dimethylsulfamoyl)phenyl)-2-methyl-1H-indole-6-carboxylic acid] | > 3000 | > 300 | < 300 | > 3000
Cc1c(-c2cccnc2)c2cc(Cl)ccc2n1C/C(F)=C/CN [Compound 77, (Z)-4-(5-chloro-2-methyl-3-(pyridin-3-yl)-1H-indol-1-yl)-3-fluorobut-2-en-1-amine] | > 3000 | > 300 | < 300 | > 3000
COC(=O)c1ccc2c(-c3cccc(S(=O)(=O)N(C)C)c3)c(C)n(C/C(F)=C/CN)c2c1 [Compound 7, (Z)-methyl 1-(4-amino-2-fluorobut-2-en-1-yl)-3-(3-(N,N-dimethylsulfamoyl)phenyl)-2-methyl-1H-indole-6-carboxylate] | > 3000 | > 300 | < 300 | > 3000
Cc1c(-c2cccc(S(=O)(=O)N(C)C)c2)c2nc(C(=O)NC(C)C)ccc2n1C/C(F)=C/CN [Compound 45, (Z)-1-(4-amino-2-fluorobut-2-en-1-yl)-3-(3-(N,N-dimethylsulfamoyl)phenyl)-N-isopropyl-2-methyl-1H-pyrrolo[3,2-b]pyridine-5-carboxamide] | > 3000 | > 300 | < 300 | > 3000
Cc1c(-c2cncc(S(=O)(=O)N(C)C)c2)c2cc(Cl)ccc2n1C/C(F)=C/CN [Compound 64, (Z)-5-(1-(4-amino-2-fluorobut-2-en-1-yl)-5-chloro-2-methyl-1H-indol-3-yl)-N,N-dimethylpyridine-3-sulfonamide] | > 3000 | > 300 | < 300 | > 3000
Cc1c(-c2cncc(S(N)(=O)=O)c2)c2cc(Cl)ccc2n1C/C(F)=C/CN [Compound 83, (Z)-5-(1-(4-amino-2-fluorobut-2-en-1-yl)-5-chloro-2-methyl-1H-indol-3-yl)pyridine-3-sulfonamide] | > 3000 | > 300 | < 300 | > 3000
